# Laboratory results: patent US20100324067A1, “TETRACYCLIC DIPYRANO-COUMARIN COMPOUNDS WITH ANTI-HIV AND ANTI-MYCOBACTERIUM TUBERCULOSIS ACTIVITIES” (priority 2007, published 2010)
# Read-outs that look alike come from different tables or passages of the source.
# Tests used:
# [1] = tested on: Mycobacterium tuberculosis H37Rv (ATCC 27294); assay: Microplate Alamar Blue Assay (MABA) in BACTEC 12B medium (TAACF screen); type: cell-based; details: for IC50: read-out: IC50
# [2] = read-out: anti-TB active compound (MIC90 less than 10 μg/mL), classification
Structure (SMILES),melting point,"IC50 ([1]; MABA, H37Rv)","MIC90 ([1]; MABA, H37Rv, read-out: MIC90)","MIC90 [1, 2]"
CC1CC(=O)c2c(c3c(c4c(-c5cc(F)c(Cl)nc5Cl)cc(=O)oc24)OC(C)(C)C=C3)O1 (stereo not drawn) [Example 25],158 to 160 °C,2.86 µg/mL,3.9 µg/mL,< 10 µg/mL
"CC1CC(=O)c2c(c3c(c4c5c(c(=O)oc24)CCC5)OC(C)(C)C=C3)O1 (stereo not drawn) [Example 26, 6,6,10-trimethyl-3,4-cyclopentyl-2H,6H,12H-benzo[1,2-b:3,4-b′:5,6-b″]-tripyranyl-2,12-dione]",108 to 109 °C,23.9 µg/mL,43.6 µg/mL,–
"CCCc1c(F)c(=O)oc2c3c(c4c(c12)OC(CCC)C=C4)OC(C)CC3=O (stereo not drawn) [Example 32, 10-methyl-3-fluoro-4,6-di(-n-propyl)-2H,6H,12H-benzo[1,2-b:3,4-b′:5,6-b″]-tripyranyl-2,12-dione]",123 to 124 °C,78.3 µg/mL,> 100 µg/mL,–
"CCCCc1cc(=O)oc2c3c(c4c(c12)OC(CCC)C=C4)OC(C)CC3=O (stereo not drawn) [Example 37, 10-methyl-6-n-propyl-4-n-butyl-2H,6H,12H-benzo[1,2-b:3,4-b′:5,6-b″]-tripyranyl-2,12-dione]",135 to 138 °C,5.33 µg/mL,8.36 µg/mL,< 10 µg/mL
CCCCc1cc(=O)oc2c3c(c4c(c12)OC(CCCC)C=C4)OC(C)CC3=O (stereo not drawn) [Example 38],146 to 148 °C,10.4 µg/mL,14.4 µg/mL,–
"CCCC1C=Cc2c3c(c4oc(=O)c(F)c(CC)c4c2O1)C(=O)CC(C)O3 (stereo not drawn) [Example 39, 10-methyl-4-ethyl-6-n-propyl-3-fluoro-2H,6H,12H-benzo[1,2-b:3,4-b′:5,6-b″]-tripyranyl-2,12-dione]",151 to 153 °C,5.09 µg/mL,9.94 µg/mL,< 10 µg/mL
CCCCC1C=Cc2c3c(c4oc(=O)c(F)c(CC)c4c2O1)C(=O)CC(C)O3 (stereo not drawn) [Example 40],142 to 143 °C,1.58 µg/mL,2.47 µg/mL,< 10 µg/mL
"CCCc1cc(=O)oc2c3c(c4c(c12)OC(c1ccccc1)C=C4)OC(C)CC3=O (stereo not drawn) [Example 41, 10-methyl-4-n-propyl-6-phenyl-2H,6H,12H-benzo[1,2-b:3,4-b′:5,6-b″]-tripyranyl-2,12-dione]",96 to 99 °C,2.92 µg/mL,3.27 µg/mL,< 10 µg/mL
"CCc1c(F)c(=O)oc2c3c(c4c(c12)OC(c1ccccc1)C=C4)OC(C)CC3=O (stereo not drawn) [Example 42, 10-methyl-4-ethyl-6-phenyl-3-fluoro-2H,6H,12H-benzo[1,2-b:3,4-b′:5,6-b″]-tripyranyl-2,12-dione]",109 to 111 °C,5.56 µg/mL,6.81 µg/mL,< 10 µg/mL
"CCCc1c(F)c(=O)oc2c3c(c4c(c12)OC(c1ccccc1)C=C4)OC(C)CC3=O (stereo not drawn) [Example 43, 10-methyl-4-n-propyl-6-phenyl-3-fluoro-2H,6H,12H-benzo[1,2-b:3,4-b′:5,6-b″]-tripyranyl-2,12-dione]",128 to 129 °C,6.42 µg/mL,10.8 µg/mL,–
"CCCCC1C=Cc2c3c(c4oc(=O)c(Cl)c(CCC)c4c2O1)C(=O)CC(C)O3 (stereo not drawn) [Example 49, 10-methyl-4-n-propyl-3-chloro-6-n-butyl-2H,6H,12H-benzo[1,2-b:3,4-b′:5,6-b″]-tripyranyl-2,12-dione]",146 to 149 °C,4.62 µg/mL,6.4 µg/mL,< 10 µg/mL
CCCc1cc(=O)oc2c3c(c4c(c12)OC(CCC)C=C4)OCC(C)C3=O (stereo not drawn) [Example 51],148 to 150 °C,< 0.2 µg/mL,0.496 µg/mL,< 10 µg/mL
"CCCc1cc(=O)oc2c3c(c4c(c12)OC(CC)C=C4)OC(C)CC3=O (stereo not drawn) [Example 52, 10-methyl-4-n-propyl-6-ethyl-2H,6H,12H-benzo[1,2-b:3,4-b′:5,6-b″]-tripyranyl-2,12-dione]",139 to 141 °C,11.8 µg/mL,13.4 µg/mL,–
"CCc1cc(=O)oc2c3c(c4c(c12)OC(CC)C=C4)OC(C)CC3=O (stereo not drawn) [Example 53, 10-methyl-4,6-diethyl-2H,6H,12H-benzo[1,2-b:3,4-b′:5,6-b″]-tripyranyl-2,12-dione]",129 to 131 °C,6.1 µg/mL,6.85 µg/mL,< 10 µg/mL
"CCCc1c(Cl)c(=O)oc2c3c(c4c(c12)OC(CC)C=C4)OC(C)CC3=O (stereo not drawn) [Example 54, 10-methyl-4-n-propyl-6-ethyl-3-chloro-2H,6H,12H-benzo[1,2-b:3,4-b′:5,6-b″]-tripyranyl-2,12-dione]",145 to 147 °C,36.5 µg/mL,61.8 µg/mL,–
"CCc1c(F)c(=O)oc2c3c(c4c(c12)OC(CC)C=C4)OC(C)CC3=O (stereo not drawn) [Example 55, 10-methyl-4,6-diethyl-3-fluoro-2H,6H,12H-benzo[1,2-b:3,4-b′:5,6-b″]-tripyranyl-2,12-dione]",144 to 146 °C,< 0.2 µg/mL,1.07 µg/mL,< 10 µg/mL
"CCCc1c(F)c(=O)oc2c3c(c4c(c12)OC(CC)C=C4)OC(C)CC3=O (stereo not drawn) [Example 56, 10-methyl-4-n-propyl-6-ethyl-3-fluoro-2H,6H,12H-benzo[1,2-b:3,4-b′:5,6-b″]-tripyrany 1-2,12-dione]",147 to 149 °C,62.3 µg/mL,> 100 µg/mL,–
CCCc1cc(=O)oc2c3c(c4c(c12)OC(C)(C)C=C4)OC(CN=[N+]=[N-])CC3=O (stereo not drawn) [Example 58],116 to 117 °C,34.5 µg/mL,54.9 µg/mL,–
"CCCc1cc(=O)oc2c3c(c4c(c12)OC(C)(C)C=C4)OC(CNC(=O)Nc1ccc(F)cc1)CC3=O (stereo not drawn) [Example 60, 6,6-dimethyl-4-n-propyl-10-(p-fluorophenylureido)methylene-2H,6H,12H-benzo[1,2-b:3,4-b′:5,6-b″]-tripyranyl-2,12-dione]",119 to 120.5 °C,32.5 µg/mL,> 100 µg/mL,–
"CCCc1cc(=O)oc2c3c(c4c(c12)OC(C)(C)C=C4)OC(CNS(=O)(=O)c1ccc(NC(C)=O)cc1)CC3=O (stereo not drawn) [Example 61, 6,6-dimethyl-4-n-propyl-10-(p-acetylaminophenylsulfonamido)methylene-2H,6H,12H-benzo[1,2-b:3,4-b′:5,6-b″]-tripyranyl-2,12-dione]",127 to 128.5 °C,17.2 µg/mL,> 100 µg/mL,–
"CCCc1cc(=O)oc2c(-c3cccn3Cc3ccccn3)c(O)c3c(c12)OC(C)(C)C=C3 [Example 68, 5-hydroxy-6-(1′-(2-pyridyl)methylene-1′H-pyrrolyl-2′-ene)-2,2-dimethyl-10-n-propyl-2H-benzo-[2,3-f]-pyranyl-8-one]",171 to 173 °C,33 µg/mL,44.9 µg/mL,–
"CCCc1cc(=O)oc2c3c(c4c(c12)OC(c1ccccc1)C=C4)OCC(C)C3=O (stereo not drawn) [Example 78, 4-n-propyl-6-phenyl-11-methyl-2H,6H,12H-benzo[1,2-b:3,4-b′:5,6-b″]-tripyranyl-2,12-dione]",187 to 189 °C,99 µg/mL,> 100 µg/mL,–
"CCCc1cc(=O)oc2c3c(c4c(c12)OC(C)C=C4)OC(C)CC3=O (stereo not drawn) [Example 80, 6,10-dimethyl-4-n-propyl-2H,6H,12H-benzo[1,2-b:3,4-b′:5,6-b″]-tripyranyl-2,12-dione]",125 to 127 °C,3.42 µg/mL,5.46 µg/mL,< 10 µg/mL
"CCCc1c(F)c(=O)oc2c3c(c4c(c12)OC(C)C=C4)OC(C)CC3=O (stereo not drawn) [Example 84, 6,10-dimethyl-4-n-propyl-3-fluoro-2H,6H,12H-benzo[1,2-b:3,4-b′:5,6-b″]-tripyranyl-2,12-dione]",150 to 153 °C,17.3 µg/mL,27.7 µg/mL,–
"C/C=C/C1C=Cc2c3c(c4oc(=O)cc(CCC)c4c2O1)C(=O)CC(C)O3 (stereo not drawn) [Example 85, 4-n-propyl-6-propenyl-1-methyl-2H,6H,12H-benzo[1,2-b:3,4-b′:5,6-b″]-tripyranyl-2,12-dione]",136 to 138 °C,2.08 µg/mL,4.86 µg/mL,< 10 µg/mL
"CCc1c(F)c(=O)oc2c3c(c4c(c12)OCC(C)=C4)OC(C)CC3=O (stereo not drawn) [Example 93, 4-ethyl-3-fluoro-7,10-dimethyl-2H,6H,12H-benzo[1,2-b:3,4-b′:5,6-b″]-tripyranyl-2,12-dione]",118 to 120 °C,76.2 µg/mL,> 100 µg/mL,–
"CCOC1c2c3c(c4oc(=O)cc(CC)c4c2OCC1C)C(=O)CC(C)O3 (stereo not drawn) [Example 94, 8-ethyoxyl-7,10-dimethyl-4-ethyl-7,8,10,11-tetrahydro-6H-benzo[2,3-f;2′,3′-h]-tripyranyl-2,12-dione]",174 to 176 °C,10 µg/mL,16.7 µg/mL,–
